Here are results for two compounds from US8586822B2, “Methods for producing a non human model for aortic aneurysm” (INSERM (Institut National de la Sante et de la Recherche …, priority 2007, dated 2013).

The test system of assay [1] is CD28− mice treated with angiotensin II. The assay is described as follows: CD28− mice treated with angiotensin II and trichostatin. The class given is in vivo, mouse. The conditions noted are these: 1 mg/kg/day for 14 days, angiotensin II-infused CD28− mice. As to the method: Baseline blood pressure measurements were determined on 5 consecutive days. After these baseline recordings, an osmotic minipump (Alzet Model 2004; DURECT) infusing Angiotensin II (Ang II) (Sigma, St. Louis, Mo.) at a rate of 1,000 ng/kg/min was implanted s.c. and blood pressure measurements continued for 28 days to verify continuous hypertension. The animals ingested either a normal diet containing 0.4% sodium chloride or a high salt diet with 5% sodium chloride (SDS) to accentuate hypertension and kidney injury. All animals studied were between 8 and 14 wk old. The protocol followed the French Department of Agriculture and the National Institute of Health guidelines for animal care and protection. For both strains, all experiments used age- and sex-matched wild-type and genetically altered animals with similar genetic background (C57Bl/6J background). Normal C57Bl/6J and CD28 deficient animals were obtained from Charles River Laboratories. B7.1/B7.2 (CD80/CD86) deficient animals were obtained from Dr. Benoit Salomon (Université Pierre et Marie Curie-CNRS U7087 laboratory, Paris). Anti-pan-TGF-beta antibody (clone 2G7) was administrated thrice a week i.p. at the dose of 500 μg/mouse for two weeks, then at the dose of 150 μg/mouse for the following two weeks. […]

The next assay deals with AAA. The conditions noted are these: in vivo; cited from earlier work.

Each structure is given as a SMILES string.

With `CC(/C=C/C(=O)NO)=C\[C@@H](C)C(=O)c1ccc(N(C)C)cc1` [trichostatin], the aneurysm entry in assay [1] is given as “prevented aneurysm”.

With `CC[C@H]1OC(=O)[C@H](C)[C@@H](O[C@H]2C[C@@](C)(OC)[C@@H](O)[C@H](C)O2)[C@H](C)[C@@H](O[C@@H]2O[C@H](C)C[C@H](N(C)C)[C@H]2O)[C@](C)(O)C[C@@H](C)/C(=N\OCOCCOC)[C@H](C)[C@@H](O)[C@]1(C)O` [roxithromycin], the “effects in AAA” value in the assay on AAA is given as “modest effects”.
